From patent publication US11407819B2, “Compositions and use of a fibrinogen binding motif present in EFB and COA for therapeutics and vaccines against Staphylococcus aureus” (priority 2013, dated 2022)
“Also recorded” adds a separate entry of the source.

Assays:
[1] = tested on: THP-1 cells; assay: THP-1 cell adherence to immobilized Fg; assay type: cell-based; details: for inhibition of THP-1 adherence to immobilized Fg: M1/70 20 μg/ml, rEfb 0.2 μM, rCoa 0.5 μM, peptides 0.5 μM each
Method: Cell adherence assay using cell lines—A monocytic cell line THP-1 cell stably expressing αMβ2 was maintained in RPMI1640 supplemented with 10% fetal bovine serum, […] L-glutamine, 100 units/ml penicillin and 100 μg/ml streptomycin. Prior to use, cells were harvested by centrifuge, washed and suspended in RPMI 1640/1% human serum albumin. For cell adherence assays, 48-well plates were coated with 200 μl of Fibrinogen (10 μg/ml) overnight at 4° C. followed by 1 hour at 37° C. before blocking with 1% Polyvinylpyrrolidone (PVP 3600 kDa) for 45 minutes at 37° C. Subsequently, the cells were seeded 2×10^5/well in the presence or absence of Coa or Efb recombinant proteins or peptides and incubated at 37° C. for 25 minutes. Non-adherent cells were removed by washing gently three times with PBS/1% BSA. Adherent cells were quantitated with CyQuant kit according to the manufacturer's manual.

[2] = target: T1, rEfb-N binding to Fg (Homo sapiens, UniProt P02671+P02675+P02679); assay: Competition ELISA, peptide inhibition of rEfb-N (Efb 30-104) binding to Fg; details: increasing concentration of peptides; 2 nM GST fusion protein
T1 construct: full-length human Fibrinogen (diluted in PBS, Enzyme research); purchased Enzyme research; host or cells: Efb probe made in E. coli
T1 sequence (P02671 20-629 limits assumed): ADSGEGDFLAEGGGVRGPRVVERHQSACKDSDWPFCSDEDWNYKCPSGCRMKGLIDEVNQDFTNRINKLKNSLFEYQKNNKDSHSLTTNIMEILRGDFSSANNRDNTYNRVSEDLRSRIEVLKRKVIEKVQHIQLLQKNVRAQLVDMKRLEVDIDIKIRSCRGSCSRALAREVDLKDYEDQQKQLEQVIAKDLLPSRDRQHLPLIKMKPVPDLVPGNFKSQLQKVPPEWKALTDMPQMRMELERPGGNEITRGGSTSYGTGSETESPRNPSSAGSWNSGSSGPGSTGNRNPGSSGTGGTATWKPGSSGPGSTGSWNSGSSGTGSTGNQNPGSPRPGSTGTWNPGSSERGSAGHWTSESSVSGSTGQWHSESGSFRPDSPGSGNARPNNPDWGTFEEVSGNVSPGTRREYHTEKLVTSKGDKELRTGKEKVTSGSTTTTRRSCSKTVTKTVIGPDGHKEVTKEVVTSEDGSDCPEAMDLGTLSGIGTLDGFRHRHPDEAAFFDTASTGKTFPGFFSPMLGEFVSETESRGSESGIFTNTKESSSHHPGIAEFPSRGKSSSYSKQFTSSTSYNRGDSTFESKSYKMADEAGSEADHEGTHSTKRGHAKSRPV
T1 sequence (P02675 31-491): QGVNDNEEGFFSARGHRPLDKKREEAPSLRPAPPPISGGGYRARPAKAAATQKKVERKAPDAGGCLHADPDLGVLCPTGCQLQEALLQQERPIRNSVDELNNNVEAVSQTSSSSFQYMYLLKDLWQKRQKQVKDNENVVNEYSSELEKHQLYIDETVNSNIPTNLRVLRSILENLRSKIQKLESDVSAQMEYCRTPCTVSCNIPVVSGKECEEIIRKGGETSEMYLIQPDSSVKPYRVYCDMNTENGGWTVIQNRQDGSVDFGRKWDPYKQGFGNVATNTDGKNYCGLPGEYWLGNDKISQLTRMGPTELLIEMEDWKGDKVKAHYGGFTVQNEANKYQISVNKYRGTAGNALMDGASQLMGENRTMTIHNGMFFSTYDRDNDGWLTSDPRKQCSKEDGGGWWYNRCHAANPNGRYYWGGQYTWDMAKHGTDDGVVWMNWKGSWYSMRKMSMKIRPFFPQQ
T1 sequence (P02679 27-453): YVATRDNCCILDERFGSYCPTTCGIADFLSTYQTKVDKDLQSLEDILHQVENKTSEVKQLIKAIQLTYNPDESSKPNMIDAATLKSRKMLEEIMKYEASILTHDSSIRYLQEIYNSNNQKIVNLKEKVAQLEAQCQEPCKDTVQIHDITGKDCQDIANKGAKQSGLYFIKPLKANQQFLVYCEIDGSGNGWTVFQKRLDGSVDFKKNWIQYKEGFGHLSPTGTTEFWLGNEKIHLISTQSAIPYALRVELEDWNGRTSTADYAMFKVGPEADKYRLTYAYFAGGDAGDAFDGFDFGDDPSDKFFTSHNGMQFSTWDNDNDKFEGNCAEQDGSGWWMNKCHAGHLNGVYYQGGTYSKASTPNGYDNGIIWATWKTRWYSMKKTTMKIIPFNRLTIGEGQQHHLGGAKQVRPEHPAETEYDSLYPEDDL
Source text: Coa-F contains an Efb like fibrinogen binding motif. FIG. 11A is an image of a ClustalW alignment of amino acid sequence from Efb-O (Efb 68-98) and Coa from Newman strain (col-Newman). Sequence similarity was identified at Coa 474-505. Bold letters denote conserved residues and underlined letters represent similar residues. FIGS. 11B and 11C show a comparison of amino acid sequence of Efb-O with Coa 474-505 (FIG. 11B) and Coa 506-532 (FIG. 11C). Large letters in Efb-O indicate the residues important for Fg binding. The red letters show the identical residues and the yellow letters indicate the similar residues. […] Increasing concentration of Coa peptides was incubated with 2 nM GST fusion proteins in Fg-coated microtiter wells. Closed square, sCoa-O; closed circle, sCoa-RI; closed triangle, sEfb-O.
A peptide was synthesized that corresponds to the Coa-O sequence (sCoa-O) and determined its Fg binding activity in a competition ELISA. Microtiter wells were coated with Fg and binding of the recombinant N-terminal segment of Efb (rEfb-N), that harbors the two Fg binding sites, was quantitated in the presence of increasing concentration of different synthetic peptides.
In the case of peptide inhibition assay, various concentration of Efb or Coa peptides were mixed with a fixed concentration of Coa-GST or Efb-GST fusion proteins (5-10 nM) in TBS and the bound GST fusion proteins were detected through incubation with HRP-conjugated rabbit anti-GST polyclonal antibodies (5000× dilution). All proteins were diluted in TBS containing 1% BSA and 0.05% TWEEN® 20 and the ELISA assays were carried out at room temperature.

| Substance | inhibition of THP-1 adherence to immobilized Fg [1] | inhibition of rEfb-N binding to Fg [2] | reversal of inhibition of THP-1 adherence elicited by rEfb or rCoa ([1]; peptide 50 μM preincubated with rEfb (0.2 μM) or rCoa (0.2 μM)) |
| --- | --- | --- | --- |
| sCoa-RI: synthetic peptide, first 27 residues of repeat region, Coa 506-532 (ETNAYNVTTHANGQVSYGARPTYKKPS) | did not inhibit THP-1 adherence | effectively inhibited rEfb-N binding to Fg; also recorded: somewhat more effective inhibitor than sCoa-O |  |
| sEfb-O: synthetic peptide mimicking the high affinity Fg-binding motif in Efb (Efb 68-98) (KYIKFKHDYNILEFNDGTFEYGARPQFN) | did not inhibit THP-1 adherence | potently inhibited rEfb-N binding to the Fg surface; also recorded: effectively inhibited rEfb-N binding to Fg | reverses the inhibitory activities |
